Data on 1 compound can be found in article PMC3723905, “Glycogen Phosphorylase Inhibitor N-(3,5-Dimethyl-Benzoyl)-N’-(β-D-Glucopyranosyl)Urea Improves Glucose Tolerance under Normoglycemic and Diabetic Conditions and Rearranges Hepatic Metabolism” (PLoS ONE, 2013).

Structures are written as SMILES.

The target in this experiment is T1, rabbit muscle glycogen phosphorylase (Oryctolagus cuniculus, UniProt P00489).
T1 construct: gene PYGM
T1 sequence (P00489 2-843): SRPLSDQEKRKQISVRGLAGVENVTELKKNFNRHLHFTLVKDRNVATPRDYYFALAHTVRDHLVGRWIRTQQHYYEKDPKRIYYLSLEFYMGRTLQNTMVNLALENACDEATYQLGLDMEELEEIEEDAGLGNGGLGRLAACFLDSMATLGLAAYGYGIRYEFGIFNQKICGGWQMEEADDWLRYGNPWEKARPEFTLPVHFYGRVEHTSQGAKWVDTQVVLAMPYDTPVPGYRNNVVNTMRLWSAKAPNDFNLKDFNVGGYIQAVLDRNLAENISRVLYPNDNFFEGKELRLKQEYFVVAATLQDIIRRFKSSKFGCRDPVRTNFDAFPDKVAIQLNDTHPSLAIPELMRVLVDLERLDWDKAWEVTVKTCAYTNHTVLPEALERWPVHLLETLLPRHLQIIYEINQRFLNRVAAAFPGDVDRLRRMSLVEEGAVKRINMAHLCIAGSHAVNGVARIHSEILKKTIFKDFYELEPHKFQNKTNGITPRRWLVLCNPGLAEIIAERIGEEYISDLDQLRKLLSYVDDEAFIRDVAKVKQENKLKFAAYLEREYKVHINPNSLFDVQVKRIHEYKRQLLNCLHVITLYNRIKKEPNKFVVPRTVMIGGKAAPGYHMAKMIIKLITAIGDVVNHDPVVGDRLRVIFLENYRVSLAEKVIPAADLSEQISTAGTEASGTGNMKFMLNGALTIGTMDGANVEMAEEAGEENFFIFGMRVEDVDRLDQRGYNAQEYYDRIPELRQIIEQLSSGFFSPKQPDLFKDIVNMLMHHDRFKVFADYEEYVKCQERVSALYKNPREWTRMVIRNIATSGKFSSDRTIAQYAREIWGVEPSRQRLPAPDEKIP
In words: enzyme kinetics on purified rabbit muscle glycogen phosphorylase. It counts as biochemical.

In general, Ki refers to the dissociation constant of the complex between target and ligand, obtained from inhibition or displacement. A low value points to a stronger hold on the target. Turning to `Cc1cc(C)cc(C(=O)NC(=O)N[C@@H]2O[C@H](CO)[C@@H](O)[C@H](O)[C@H]2O)c1` [compound 4, N-(3,5-dimethyl-benzoyl)-N’-(β-D-glucopyranosyl)urea], the Ki was 930 ± 50 nM.
